Test results published in patent US20220339135A1, “COMPOSITIONS AND METHODS FOR MODULATING AN INFLAMMATORY RESPONSE” (Enzychem Lifesciences Corporation, priority 2019, published 2022).

Assays:
[1] = Cumulative excretion of radioactivity after single oral administration; format: in vivo, rats
Experimental: Excretion of PLAG at a single oral administration of 50 mg/kg BW to rats was examined in Mitsubishi Chemical Medicine Corporation (Japan) by radioactivity analysis. After oral administration of a single dose of 50 mg/kg, animals were individually accommodated in glass metabolic cages (Metabolica Model MC-CO2). Spontaneously excreted urine, feces, and radioactive molecules expired from each animal were collected. Sampling time points are 0-24, 24-48, 48-72 hours after administration. Then radioactivity and the excretion ratios and amount of radioactivity were determined. Radioactivity was measured by LSC (Tri-Carb 2300TR. Perkin Elmer, Inc) with the tSIE (transformed spectral index of external standard) method for the quenching correction.

[2] = system: chemo-radiation and scratch induced oral mucositis; assay: Chemo-radiation and scratch induced oral mucositis; format: in vivo, mice; conditions: PLAG 250 mg/kg oral, n=7
Experimental: For radiation therapy, mice received 1 Gy of gamma radiation with mice whole body. Mice were intraperitoneally administered 5-FU (Sigma Aldrich) at 50 mg/kg. For facilitating the risk of infection, mice were anesthetized with 2,2,2-tribromoethanol (150 mg/kg, Sigma Aldrich) by intraperitoneal injection, and then tongue was scratched 0.2 cm wound on a third of side at using the tip of an 18-gauge needle with an equal force and depth. PLAG (Enzychem Lifesciences) was stored in −80° C. refrigerator and was administered orally once with 250 mg/kg. Formulations were aggressively mixed to be cloudiness and were injected within 10 minutes.
The tongue was scratched 0.2 cm wound on a third of side at using the tip of an 18-gauge needle with an equal force and depth on Day 0, 7, 10, and 16. Mice were received 1 Gy of gamma radiation on Day 2 and 5-FU was administered intraperitoneally in a dose of 50 mg/kg on Days 4. For the group receiving PLAG, 250 mg/kg of PLAG was administered orally once daily. To check the oral mucositis, mice were anesthetized with 2,2,2-tribromoethanol (150 mg/kg, Sigma Aldrich) by intraperitoneal injection on Day 7, 10, 14, 18. Each group contained seven mice.

[3] = system: NET formation of neutrophil, BALF derived cells; assay: NETosis of PAK-introduced BALF derived cells; format: cell-based, mice; conditions: PAK/PLAG vs PAK
Experimental: (§1) 2 hours after PAK infection, BALF derived cells were harvested and detected extracellular DNA-elastase complex by using ELISA and visualized by using confocal microscopy (×400) or scanning electron microscope (SEM) (×8000). […] were washed with PBS and mounted in DAPI-containing fluorescence microscopy mounting medium (Invitrogen). Samples were analyzed with a laser scanning confocal microscope (Carl Zeiss, Oberkochen, Germany).

[4] = system: NET formation of neutrophil, bone marrow-derived cells; assay: NETosis of PAK-introduced bone marrow-derived cells; format: cell-based; conditions: PAK/PLAG vs PAK
Experimental: as §1, with “bone marrow-derived” for “BALF derived”

[5] = system: TLR4/MD2 on the surface of Raw264.7 cells; assay: LPS-induced TLR4/MD2 internalization, confocal microscopy; format: cell-based; conditions: LPS/PLH compared to LPS treated cells
Experimental: Raw264.7 cells were divided into two groups: 1) LPS treated group and 2) LPS/PLAG treated group. For LPS treated group, cells were stimulated with LPS (100 ng/ml) for 0, 15, 30, 45, 60, 75, 90, 105, 120 minutes. For LPS/PLAG treatment, cells were pre-incubated with PLAG (100 μg/ml) for 1 hour and then stimulated with LPS (100 ng/ml) for 0, 15, 30, 45, 60, 75, 90, 105, 120 minutes. To detect TLR4/MD2 on the membrane surface, cells were fixed with 2% paraformaldehyde (Sigma-Aldrich) and were blocked with PBS containing 1% BSA (Gibco, Waltham, Mass., USA). They were incubated with rabbit anti-TLR4/MD2 antibody (Thermo) and Alexa488 conjugated anti-rabbit IgG (Invitrogen). For confocal microscopy analysis, cells were washed with PBS and mounted in DAPI-containing fluorescence microscopy mounting medium (Invitrogen). Samples were analyzed with a laser scanning confocal microscope (Carl Zeiss, Oberkochen, Germany).
Raw264.7 cells were divided into two groups: 1) LPS treated group and 2) LPS/PLAG treated group. […] These were analyzed by confocal microscopy. […]
To detect TLR4/MD2 on the membrane surface, cells were fixed with 2% paraformaldehyde (Sigma-Aldrich) and were blocked with PBS containing 1% BSA (Gibco, Waltham, Mass., USA). […] For confocal microscopy analysis, cells were washed with PBS and mounted in DAPI-containing fluorescence microscopy mounting medium (Invitrogen). […]

| SMILES | dosed radioactivity excreted into expired air ([1]; 50 mg/kg oral, by 24 hours) | dosed radioactivity excreted into feces ([1]; 50 mg/kg oral, by 24 hours) | dosed radioactivity excreted into urine ([1]; 50 mg/kg oral, by 24 hours) | total recovery of radioactivity ([1]; 50 mg/kg oral, by 24 hours) | PLAG administered degraded and metabolized ([1]; within 24 hours) | survival rate after 18 days [2] | NET formation of neutrophil [3] | NET formation of neutrophil [4] | effect on TLR4/MD2 internalization and return to the surface [5] |
| --- | --- | --- | --- | --- | --- | --- | --- | --- | --- |
| CCCCC/C=C\C/C=C\CCCCCCCC(=O)OC(COC(C)=O)COC(=O)CCCCCCCCCCCCCCC (racemic) [PLAG, 1-palmitoyl-2-linoleoyl-3-acetylglycerol] | 71.0% | 3.0% | 1.9% | 75.9% | approximately 76% | 85% | accelerated | accelerated | – |
| CCCCC/C=C\C/C=C\CCCCCCCC(=O)OC(CO)COC(=O)CCCCCCCCCCCCCCC (stereo not drawn) [PLH, palmitic linoleic hydroxyl glycerol, reference compound] | – | – | – | – | – | – | – | – | had no effect |
